Test results: patent US20080063703A1, “Active Drug Delivery in the Gastrointestinal Tract” (priority 2004, published 2008)
Read-outs that look alike come from different tables or passages of the source.

Tests used:
rat jejunum = experiment: In vitro macromolecule permeation of rat jejunum sections with/without electrical stimulation and L-NAME (FIG. 37); assay type: in vitro ADME
Method: Reference is now made to FIG. 37, which is a graph showing in vitro measurements of macromolecule permeation, measured in accordance with an embodiment of the present invention. Several sections of rat jejunum were prepared, and the permeation of the sections to Leuprolide and Octreotide peptides was measured with and without electrical stimulation, and with and without application of 1 mM N^G-Nitro-L-Arginine methyl ester (L-NAME), a non-specific nitric oxide (NO) synthase (NOS) inhibitor. The electrical stimulation included the following parameters: 18 Hz, 1 ms pulses, and 5 mA (corresponding to a voltage of about 2 V).

[1] = tested on: proabsorptive effect of NO; conditions: addition of NOS inhibitors; cited from earlier work
[2] = tested on: electrically-induced NO synthesis and release; conditions: NO synthase inhibitor added; cited from earlier work
rat intestine = conditions: all regions of the rat intestine; cited from earlier work
mouse ileum = conditions: addition of NO donors to mouse ileum; cited from earlier work
[3] = tested on: upper jejunum tissue segments; experiment: Octreotide permeation via rat upper jejunum tissue segment in diffusion chamber, with or without LITV pulses (FIG. 24); assay type: in vitro ADME, Wistar rat; conditions: LITV pulses 12 Hz, 1 millisecond, 3 mA vs control without stimulation; 1 mg/ml octreotide acetate, 90-minute period
Method: Reference is now made to FIG. 24, which is a graph showing in vitro experimental results measured in accordance with an embodiment of the present invention. A 300 g Wistar rat was anaesthetized using Ketamine (100 mg/kg) and Xylazine (10 mg/kg). Two 3 cm-long sections of the upper jejunum were removed and opened along the lumen so that two rectangular pieces of tissue were available. The serosal and muscular layers were removed using a microscope cover glass. The intestinal tissue segments were placed on slides and inserted into diffusion chambers similar to experimental diffusion chamber 500, described hereinbelow with reference to FIG. 26. […] The tissue segments on the slides completely covered the windows between the donor and acceptor cells. The cells were filled with 15 ml of Hank's Balanced Salt Solution (HBSS) (pH 7.4). The donor cells were then divided into two separate sections with a dividing board slightly touching the tissue so that fluid passage between the two parts of each donor cell was slow (if not impossible). […]
In one of the diffusion chambers (which served as a control), permeation of octreotide via the tissue segment was measured without the application of electrical stimulation. […] The samples were analyzed by HPLC-UV 205 nm spectroscopy (Hewlett-Packard 1100, acetonitril: phosphate buffer (pH 7.4) (40:60), C18 column) for their content of octreotide.

jejunal tissue = experiment: Octreotide permeation via jejunal tissue in diffusion chamber 500 with LITV pulses (FIGS. 27-36); assay type: in vitro ADME, Wistar rat; conditions: for permeation efficiency, effect of pulse cycle: 1 millisecond (FIG. 31); for octreotide permeation vs control group: 3 mA (FIG. 29); for permeation efficiency, effect of electrode material: 1 millisecond (FIG. 34)
Method: (§1) Reference is now made to FIG. 26, which is a schematic cross-sectional illustration of an experimental diffusion chamber 500, and FIGS. 27-36, which are graphs showing in vitro experimental results generated in accordance with respective embodiments of the present invention. A number of 300 g Wistar rats were anaesthetized using Ketamine (100 mg/kg) and Xylazine (10 mg/kg). Two 3 cm-long sections 510 of the intestine were removed from each rat and opened along the mesenterial line so that two rectangular pieces of tissue were available from each rat (a single tissue section 510 is shown in FIG. 26). For the experiments described hereinbelow with reference to FIGS. 27-35, the intestinal sections were taken from the upper jejunum, while for the experiment described hereinbelow with reference to FIG. 36, the intestinal sections were taken from the upper jejunum, proximal ileum, and distal ileum. The serosal and muscular layers of the intestinal sections were removed using a microscope cover glass. Each of the intestinal tissue segments was placed on a slide and inserted into diffusion chamber 500.
Diffusion chamber 500 is shaped so as to define a donor cell 520 and an acceptor cell 522, connected by a 28 mm×8 mm window 524. Tissue segment 510 on the slide completely covered window 524. Tissue segment 510 was placed so as to completely cover window 524, thereby separating donor cell 520 and acceptor cell 522. Tissue segment 510 was oriented such that the mucosal side thereof faced donor cell 520, and the serosal side thereof faced acceptor cell 522. Donor cell 520 was filled with 15 ml of Hank's Balanced Salt Solution (HBSS) adjusted to a pH of 7.4 (in mM: 136.9 NaCl, 5.4 KCl, 0.5 MgCl2, 0.4 MgSO4, 4.5 KH2PO4, 0.35 Na2HPO4, 1.0 CaCl2, 4.2 NaHCO3, 5.5 D-Glucose). Acceptor cell 522 was filled with D-Glucose-supplemented Phosphate Buffered Saline (PBS) adjusted to a pH of 7.4 (in mM: 136.9 NaCl, 2.7 KCl, 0.5 MgCl2, 1.5 KH2PO4, 8.1 Na2HPO4, 0.7 CaCl2, 5.5 D-Glucose).
After tissue segment 510 was placed over window 524, the donor cell was divided into two separate compartments 526a and 526b by an electrically-insulating divider 528 positioned to slightly touch tissue segment 510 so that fluid passage between compartments 526a and 526b was slow (if not impossible). (Donor cell 520 was not divided into compartments 526a and 526b in the experiment described hereinbelow with reference to FIG. 33.) The solution was maintained at 37° C. and gassed with 95% O2/5% CO2, supplied via 1 mm ID tubes placed at the bottom of each cell (tubes not shown in FIG. 26).
A single square electrode 530 was placed in each of compartments 526a and 526b of donor cell 520, such that an electrode surface 532 of each electrode was parallel to the surface of tissue segment 510, at a 0.5 mm distance from tissue segment 510 (except for the experiment described hereinbelow with reference to FIG. 32). Electrodes 530 comprised stainless steel (SS316L, 6 mm×6 min) (except for the experiment described hereinbelow with reference to FIG. 34). The distance between the centers of electrode surfaces 532 was 10 mm. After tissue segment 510 was in position over window 524 for 30 minutes, the HBSS in donor cell 520 was replaced with 1 mg/ml octreotide acetate (Sandostatin) containing HBSS.
In each of the experiments described hereinbelow with reference to FIGS. 27-36, beginning upon replacement of the HBSS in donor cell 520 with octreotide, a train of LITV pulses was applied through electrodes 530, and the permeation of octreotide from donor cell 520 to acceptor cell 522 via tissue segment 510 was measured. This train of monophasic rectangular pulses was generated using a Thurlby Thandar Instruments TGP110 pulse generator. The voltage output of the pulse generator was adjusted so that a 3 mA current flowed through the electrodes. An EZ Digital Co. DM330 Digital Multimeter, connected serially to the electrodes, was used to measure current. […]

proximal ileum tissue = experiment: Octreotide permeation via proximal ileum tissue in diffusion chamber 500 with LITV pulses (FIG. 36); assay type: in vitro ADME, Wistar rat; conditions: 18 Hz, 3 mA, 1 millisecond vs control, at 7 minutes (FIG. 36)
Method: as §1, with “Each of the intestinal tissue segments was placed on a slide and inserted into diffusion chamber 500.” left out
(§2) In each of the experiments described hereinbelow with reference to FIGS. 27-36, beginning upon replacement of the HBSS in donor cell 520 with octreotide, a train of LITV pulses was applied through electrodes 530, and the permeation of octreotide from donor cell 520 to acceptor cell 522 via tissue segment 510 was measured. […]

distal ileum tissue = experiment: Octreotide permeation via distal ileum tissue in diffusion chamber 500 with LITV pulses (FIG. 36); assay type: in vitro ADME, Wistar rat; conditions: 18 Hz, 3 mA, 1 millisecond vs control, at 7 minutes (FIG. 36)
Method: as §1, with “Each of the intestinal tissue segments was placed on a slide and inserted into diffusion chamber 500.” left out
as §2

## COC(=O)[C@@H](N)CCCNC(=N)N[N+](=O)[O-] [L-NAME, N^G-Nitro-L-Arginine methyl ester]
Rat jejunum; 1 mM L-NAME, with and without stimulation
  effect of NOS inhibition on peptide permeation vs non-NOS-inhibited groups: substantially less
[1]
  proabsorptive effect of NO: significantly reduced

## CNC(=N)NCCC[C@H](N)C(=O)O [L-NMA, N^G-methyl-L-arginine]
[1]
  proabsorptive effect of NO: significantly reduced

## N=C(NCCC[C@H](N)C(=O)O)N[N+](=O)[O-] [L-NNA, N^G-nitro-L-arginine]
[1]
  proabsorptive effect of NO: significantly reduced
[2]
  electrically-induced NO synthesis and release: almost entirely prevented

## CCNC(=O)[C@@H]1CCCN1C(=O)[C@H](CCCNC(=N)N)NC(=O)[C@H](CC(C)C)NC(=O)[C@@H](CC(C)C)NC(=O)[C@H](Cc1ccc(O)cc1)NC(=O)[C@H](CO)NC(=O)[C@H](Cc1c[nH]c2ccccc12)NC(=O)[C@H](Cc1c[nH]cn1)NC(=O)[C@@H]1CCC(=O)N1 [Leuprolide]
Rat jejunum
  penetration of the peptides: about 0.6 ug/ml

## CC(C)N(CCCN)/[N+]([O-])=N/O [NOC5]
Rat intestine
  absorption of macromolecules: improve absorption of macromolecules

## CNCCCN(C)/[N+]([O-])=N/O [NOC7]
Rat intestine
  absorption of macromolecules: improve absorption of macromolecules

## CCNCCN(CC)/[N+]([O-])=N/O [NOC12]
Rat intestine
  absorption of macromolecules: improve absorption of macromolecules

## CC(=O)N[C@H](C(=O)O)C(C)(C)SN=O [SNAP, S-nitroso-acetyl-penicillamine]
Mouse ileum
  transepithelial electrical resistance: decrease in transepithelial electrical resistance

## C[C@@H](O)[C@@H]1NC(=O)[C@H](CCCCN)NC(=O)[C@@H](Cc2c[nH]c3ccccc23)NC(=O)[C@H](Cc2ccccc2)NC(=O)[C@@H](NC(=O)[C@H](N)Cc2ccccc2)CSSC[C@@H](C(=O)N[C@H](CO)[C@@H](C)O)NC1=O [octreotide, octreotide acetate]
[3]
  octreotide permeation into acceptor cell: substantially greater increase in octreotide permeation
Jejunal tissue; 0.5 mm vs 3 mm, 18 Hz, 3 mA, 1 millisecond, at 15 minutes (FIG. 32)
  magnitude of permeation efficiency, effect of electrode distance from jejunal tissue: greater at 0.5 mm than at 3 mm
Jejunal tissue; 1 pulse per cycle, 18 Hz, 3 mA
  permeation efficiency, effect of pulse cycle: greatest permeation efficiency
Jejunal tissue; 18 Hz among 5-60 Hz tested, 1 millisecond, 3 mA, at 30 minutes (FIG. 28)
  enhancement ratio, effect of pulse frequency: greatest enhancement ratio
Jejunal tissue; continuous application vs cessation after 10 minutes, 18 Hz, 3 mA, 1 millisecond (FIG. 35)
  permeation efficiency, effect of cessation of pulse application: substantially greater permeation efficiency
Jejunal tissue; electrodes not insulated from each other (without divider 528), 18 Hz, 3 mA, 1 millisecond (FIG. 33)
  permeation efficiency, effect of electrode insulation: did not increase permeation efficiency
Jejunal tissue; increasing number of pulses per cycle (2, 3), 18 Hz, 3 mA
  permeation efficiency, effect of pulse cycle: the permeation efficiency decreased
Jejunal tissue; jejunal tissue, 18 Hz, 3 mA, 1 millisecond vs control, at 7 minutes (FIG. 36)
  permeation efficiency in different regions of the intestine: greatest effect of pulse application
Jejunal tissue; pulse duration 1 millisecond among 0.2-3 milliseconds tested, 18 Hz, 3 mA, at 15 minutes (FIG. 30)
  enhancement ratio, effect of pulse duration: greatest enhancement ratio
Jejunal tissue; pulses 1 millisecond, 18 Hz, 3 mA vs non-stimulated control group (FIG. 27)
  octreotide permeation (permeation efficiency): substantially enhanced octreotide permeation
Jejunal tissue; pulses at 5 Hz, 1 millisecond
  octreotide permeation vs control group: did not yield a higher octreotide permeation
Jejunal tissue; pulses at 60 Hz, 1 millisecond
  octreotide permeation vs control group: did not yield a higher octreotide permeation
Jejunal tissue; silver chloride electrodes, 18 Hz, 3 mA
  permeation efficiency, effect of electrode material: did not increase permeation efficiency
Jejunal tissue; stainless steel (SS316L) electrodes, 18 Hz, 3 mA
  permeation efficiency, effect of electrode material: substantially increased permeation efficiency
Jejunal tissue; titanium nitride electrodes, 18 Hz, 3 mA
  permeation efficiency, effect of electrode material: did not increase permeation efficiency
Proximal ileum tissue
  permeation efficiency in different regions of the intestine: increased permeation efficiency
Distal ileum tissue
  permeation efficiency in different regions of the intestine: positive but less pronounced effect
Rat jejunum; NOS-inhibited (1 mM L-NAME) non-stimulation group, after 45 minutes
  permeation of the peptides: about 0.45 ug/ml
Rat jejunum; NOS-inhibited (1 mM L-NAME) stimulation group (18 Hz, 1 ms, 5 mA), after 45 minutes
  permeation of the peptides: about 0.45 ug/ml
Rat jejunum; non-NOS-inhibited electrical stimulation group (18 Hz, 1 ms, 5 mA), after 45 minutes
  permeation of the peptides: about 1.45 ug/ml
Rat jejunum; non-stimulation, non-NOS-inhibited control group, after 45 minutes
  penetration of the peptides: about 0.6 ug/ml
